Our source for the MIC values is DBAASP.

Among the test systems are Escherichia coli UB1005; Micrococcus luteus; Serratia marcescens; Bacillus subtilis; Pseudomonas aeruginosa; Proteus mirabilis; Saccharomyces cerevisiae; Candida albicans; Salmonella typhimurium; Escherichia coli; Shigella dysenteriae; Escherichia coli ML-35; Bacillus megaterium.
Common to all, as to experiment: ≥ marks a high value that may be exact or a test limit, other limits are often not marked, values filed in µg/mL are converted to µM
Assay [1] relates to Salmonella enterica subsp. enterica serovar Pullorum C79-13.
Assay [2] relates to Pseudomonas aeruginosa ATCC 27853.
Assay [3] has as its system Staphylococcus aureus ATCC 43300.
Assay [4] relates to Salmonella typhimurium ATCC 7731.
For assay [5], the system named is Staphylococcus epidermidis ATCC 12228.
The test system of assay [6] is Bacillus subtilis CMCC 63501.
Assay [7] deals with Enterococcus faecalis ATCC 29212.
The subject of assay [8] is Staphylococcus epidermidis.
Assay [9] relates to Pseudomonas aeruginosa ATCC 15692.
Assay [10] has as its system Salmonella typhimurium KCTC 1926.
Assay [11] relates to Escherichia coli ATCC 25922.
The subject of assay [12] is Micrococcus luteus ATCC 4698.
Assay [13] has as its system Staphylococcus aureus ATCC 25923.
The test system of assay [14] is Salmonella enterica subsp. enterica serovar Typhimurium ATCC 14028.
Assay [15] deals with Staphylococcus aureus ATCC 29213.

Converted amounts (≈) assume the structure as drawn. “And” between values parts separate entries of the source, which are not always exact repeats. Identical values can stand only once.

The term MIC denotes the lowest concentration found to suppress growth. For `CC(C)C[C@H](NC(=O)[C@H](CCCNC(=N)N)NC(=O)CNC(=O)CNC(=O)[C@@H](N)CCCNC(=N)N)C(=O)N[C@@H](CS)C(=O)N[C@@H](Cc1ccc(O)cc1)C(=O)N[C@@H](CS)C(=O)N[C@@H](CCCNC(=N)N)C(=O)N[C@@H](CCCNC(=N)N)C(=O)N[C@@H](CCCNC(=N)N)C(=O)N[C@@H](Cc1ccccc1)C(=O)N[C@@H](CS)C(=O)N[C@H](C(=O)N[C@@H](CS)C(=O)N[C@H](C(=O)NCC(=O)N[C@@H](CCCNC(=N)N)C(N)=O)C(C)C)C(C)C` [RGGRLCYCRRRFCVCVGR], the MIC was found to be 2 µM (≈ 4.32 µg/mL) in assay [1]; 16 µM (≈ 34.6 µg/mL) in assay [2]; 2 µM (≈ 4.32 µg/mL) in assay [3]; 8 µM (≈ 17.3 µg/mL) in [4]; 16 µM (≈ 34.6 µg/mL) in assay [5]; 8 µM (≈ 17.3 µg/mL) in [6]. Also, the MIC was 16 µM (≈ 34.6 µg/mL) in assay [7] and 2 µM (≈ 4.32 µg/mL) against Escherichia coli UB1005.

For the molecule `CC[C@H](C)[C@H](NC(=O)CN)C(=O)N[C@@H](CC(C)C)C(=O)N[C@@H](CC(=O)O)C(=O)N[C@H](C(=O)N[C@@H](CC(C)C)C(=O)N[C@@H](CCCCN)C(=O)N[C@@H](CCC(N)=O)C(=O)N[C@@H](Cc1ccccc1)C(=O)N[C@@H](C)C(=O)N[C@@H](CCCCN)C(=O)NCC(=O)N[C@H](C(=O)NCC(=O)N[C@@H](CCCCN)C(=O)N[C@@H](CC(=O)O)C(=O)N[C@@H](CC(C)C)C(=O)N[C@H](C(=O)N[C@@H](CCCCN)C(=O)NCC(=O)N[C@@H](C)C(=O)N[C@@H](C)C(=O)N[C@@H](CCC(N)=O)C(=O)NCC(=O)N[C@H](C(=O)N[C@@H](CC(C)C)C(=O)N[C@@H](CO)C(=O)N[C@H](C(=O)N[C@H](C(=O)O)C(C)C)[C@@H](C)O)C(C)C)C(C)C)C(C)C)[C@@H](C)O` [GILDTLKQFAKGVGKDLVKGAAQGVLSTV], the MIC was ≥ 34.3 µM in [8]; 0.858 µM (≈ 2.5 µg/mL) in the assay on Micrococcus luteus; ≥ 34.3 µM in the assay on Serratia marcescens; 17.2 µM (≈ 50 µg/mL) in the assay on Bacillus subtilis; 8.58 µM (≈ 25 µg/mL) against Pseudomonas aeruginosa; 17.2 µM (≈ 50 µg/mL) with Proteus mirabilis. Further, the minimum inhibitory concentration (MIC) in the assay on Saccharomyces cerevisiae is 8.58 µM (≈ 25 µg/mL); against Candida albicans, > 34.3 µM; against Salmonella typhimurium, 17.2 µM (≈ 50 µg/mL); in the assay with Escherichia coli, 8.58 µM (≈ 25 µg/mL); against Shigella dysenteriae, 8.58 µM (≈ 25 µg/mL).

Take `CC[C@H](C)[C@H](NC(=O)[C@H](Cc1cnc[nH]1)NC(=O)[C@H](Cc1cnc[nH]1)NC(=O)[C@@H](NC(=O)[C@H](CC(C)C)NC(=O)[C@H](Cc1cnc[nH]1)NC(=O)CNC(=O)[C@H](C)NC(=O)CNC(=O)[C@H](Cc1cnc[nH]1)NC(=O)[C@@H](NC(=O)[C@@H](NC(=O)[C@H](CO)NC(=O)CNC(=O)[C@H](C)NC(=O)[C@H](Cc1ccccc1)NC(=O)[C@H](CCCN=C(N)N)NC(=O)[C@H](CC(C)C)NC(=O)[C@@H](N)Cc1ccccc1)C(C)C)[C@@H](C)CC)C(C)C)C(=O)NCC(=O)N[C@H](C(=O)N[C@@H](C)C(=O)N[C@@H](CC(C)C)C(N)=O)C(C)C` [FLRFAGSVIHGAGHLVHHIGVAL]: the minimal inhibitory concentration (MIC) in [9] is ≥ 32 µM; in assay [10], ≥ 64 µM; in assay [11], 4 µM and 8 µM.

On to `CC(C)C[C@H](NC(=O)[C@H](CCCN=C(N)N)NC(=O)[C@H](Cc1cnc[nH]1)NC(=O)[C@H](Cc1c[nH]c2ccccc12)NC(=O)CNC(=O)CNC(=O)[C@@H](N)CO)C(=O)N[C@@H](CCCN=C(N)N)C(=O)N[C@@H](CO)C(=O)O` [SGGWHRLRS], for which the minimal inhibitory concentration (MIC) in [12] is ≥ 75 µM.

`CC[C@H](C)[C@H](NC(=O)[C@H](CCCCN)NC(=O)[C@H](CCCCN)NC(=O)[C@H](CC(C)C)NC(=O)[C@H](CCCCN)NC(=O)[C@H](CCC(=O)O)NC(=O)[C@H](CCCCN)NC(=O)[C@H](CCCCN)NC(=O)[C@H](CCCCN)NC(=O)[C@H](CC(N)=O)NC(=O)[C@H](CCCN=C(N)N)NC(=O)[C@H](Cc1ccccc1)NC(=O)[C@H](CCCCN)NC(=O)[C@H](CCCN=C(N)N)NC(=O)[C@H](CCCCN)NC(=O)[C@H](CCCN=C(N)N)NC(=O)[C@H](CCCCN)NC(=O)[C@H](CCCN=C(N)N)NC(=O)[C@H](CC(C)C)NC(=O)CN)C(=O)O` [GLRKRKRKFRNKKKEKLKKI]: the MIC in assay [13] was > 64 µM; in the assay on Escherichia coli ML-35, ≥ 64 µM; in [2] it was > 64 µM; against Bacillus megaterium, ≥ 64 µM; in [11] it was > 64 µM; in [14] it was > 64 µM.

In the case of `CC[C@H](C)[C@H](N)C(=O)N[C@@H](Cc1cnc[nH]1)C(=O)N[C@@H](CCCCN)C(=O)N[C@@H](Cc1ccccc1)C(=O)N[C@@H](Cc1c[nH]c2ccccc12)C(=O)N[C@@H](CCCN=C(N)N)C(=O)N[C@@H](CS)C(=O)N[C@@H](CCCN=C(N)N)C(=O)N[C@@H](CCCN=C(N)N)C(=O)N[C@@H](CCCN=C(N)N)C(=O)N[C@@H](Cc1ccccc1)C(=O)N[C@@H](CS)C(=O)N[C@@H](CCCN=C(N)N)C(=O)N[C@@H](Cc1c[nH]c2ccccc12)C(=O)N[C@@H](Cc1ccccc1)C(=O)N[C@@H](CCCCN)C(=O)N[C@@H](Cc1cnc[nH]1)C(=O)N[C@H](C(N)=O)[C@@H](C)CC` [IHKFWRCRRRFCRWFKHI], the MIC in [1] is 8 µM (≈ 20.6 µg/mL); in assay [2] it was 8 µM (≈ 20.6 µg/mL); in assay [3], 8 µM (≈ 20.6 µg/mL); in assay [4] it was 8 µM (≈ 20.6 µg/mL); in [15], 8 µM and 16 µM; in [5] it was 8 µM (≈ 20.6 µg/mL). The MIC came out at 16 µM (≈ 41.2 µg/mL) in [6], 16 µM (≈ 41.2 µg/mL) in [7] and 8 µM (≈ 20.6 µg/mL) against Escherichia coli UB1005.

For `CC[C@H](C)[C@H](N)C(=O)N[C@@H](Cc1cnc[nH]1)C(=O)N[C@@H](CCCCN)C(=O)N[C@@H](Cc1ccccc1)C(=O)N[C@@H](Cc1c[nH]c2ccccc12)C(=O)N[C@@H](CCCN=C(N)N)C(=O)N1CCC[C@H]1C(=O)NCC(=O)N[C@@H](CCCN=C(N)N)C(=O)N[C@@H](Cc1c[nH]c2ccccc12)C(=O)N[C@@H](Cc1ccccc1)C(=O)N[C@@H](CCCCN)C(=O)N[C@@H](Cc1cnc[nH]1)C(=O)N[C@H](C(N)=O)[C@@H](C)CC` [IHKFWRPGRWFKHI], the MIC in assay [1] stood at 4 µM (≈ 7.63 µg/mL); in assay [2], 4 µM (≈ 7.63 µg/mL); in [3], 16 µM (≈ 30.5 µg/mL); in assay [4], 8 µM (≈ 15.3 µg/mL); in [5], 16 µM (≈ 30.5 µg/mL); in assay [6] it was 8 µM (≈ 15.3 µg/mL). The MIC in assay [7] amounted to 8 µM (≈ 15.3 µg/mL); in the assay with Escherichia coli UB1005 it was 4 µM (≈ 7.63 µg/mL).

With `CC[C@H](C)[C@H](NC(=O)CNC(=O)[C@H](Cc1cnc[nH]1)NC(=O)[C@@H](NC(=O)[C@@H](NC(=O)[C@H](CO)NC(=O)CNC(=O)[C@@H](NC(=O)[C@H](Cc1ccccc1)NC(=O)[C@H](CCCN=C(N)N)NC(=O)[C@H](CC(C)C)NC(=O)[C@@H](N)Cc1ccccc1)[C@@H](C)CC)C(C)C)[C@@H](C)CC)C(=O)NCC(=O)N[C@@H](Cc1cnc[nH]1)C(=O)N[C@@H](CC(C)C)C(=O)N[C@H](C(=O)N[C@@H](Cc1cnc[nH]1)C(=O)N[C@@H](Cc1cnc[nH]1)C(=O)N[C@H](C(=O)NCC(=O)N[C@H](C(=O)N[C@@H](C)C(=O)N[C@@H](CC(C)C)C(N)=O)C(C)C)[C@@H](C)CC)C(C)C` [FLRFIGSVIHGIGHLVHHIGVAL], the minimum inhibitory concentration (MIC) in assay [9] and in assay [10] was ≥ 64 µM throughout.
